According to PubChem BioAssay AID1845216 (Molecular Pharmacology Branch, DTP, NCI, 2023):

Test system: SW 982 tumor spheroid viability
Assay: Anticancer human tumor SW 982 cell line growth inhibition;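 note: spheroids exposed to compound for 7 days before readout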
Conditions: spheroids with HUVEC and MSC; for IC50: curve of first compound; for viability, T/C: stronger effect = lower value
Outline: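 Complex spheroids of malignant cells with endothelial cells and mesenchymal stem cells; agents alone or combined, from near clinical Cmax (or 10 microM if unknown) down in half-log steps, 0.25% DMSO final.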

[1] = second compound 1 µM, first compound 0.0316 µM
[2] = second compound 1 µM, first compound 0.1 µM
[3] = second compound 1 µM, first compound 0.316 µM
[4] = second compound 1 µM, first compound 1 µM
[5] = second compound 1 µM, first compound 3.16 µM
[6] = second compound 1 µM, first compound 10 µM
[7] = second compound 3.16 µM, first compound 0.0316 µM
[8] = second compound 3.16 µM, first compound 0.1 µM
[9] = second compound 3.16 µM, first compound 0.316 µM
[10] = second compound 3.16 µM, first compound 1 µM
[11] = second compound 3.16 µM, first compound 3.16 µM
[12] = second compound 3.16 µM, first compound 10 µM
[13] = second compound 10 µM, first compound 0.0316 µM
[14] = second compound 10 µM, first compound 0.1 µM
[15] = second compound 10 µM, first compound 0.316 µM
[16] = second compound 10 µM, first compound 1 µM
[17] = second compound 10 µM, first compound 3.16 µM
[18] = second compound 10 µM, first compound 10 µM
[19] = second compound 31.6 µM, first compound 0.0316 µM
[20] = second compound 31.6 µM, first compound 0.1 µM
[21] = second compound 31.6 µM, first compound 0.316 µM
[22] = second compound 31.6 µM, first compound 1 µM
[23] = second compound 31.6 µM, first compound 3.16 µM
[24] = second compound 31.6 µM, first compound 10 µM
[25] = second compound 100 µM, first compound 0.0316 µM
[26] = second compound 100 µM, first compound 0.1 µM
[27] = second compound 100 µM, first compound 0.316 µM
[28] = second compound 100 µM, first compound 1 µM
[29] = second compound 100 µM, first compound 3.16 µM
[30] = second compound 100 µM, first compound 10 µM

CC1COCCN1c1cc(-c2ccnn2C)c2ccnc(-c3ccn[nH]3)c2n1 (stereo not given) + Cn1nnc2c(C(N)=O)ncn2c1=O
IC50 (second compound 1 µM): < 31.6 nM
IC50 (second compound 3.16 µM): < 31.6 nM
IC50 (second compound 10 µM): < 31.6 nM
IC50 (second compound 31.6 µM): < 31.6 nM
IC50 (second compound 100 µM): < 31.6 nM
viability, T/C [1]: 32.4%
viability, T/C [2]: 20.4%
viability, T/C [3]: 17.3%
viability, T/C [4]: 15.4%
viability, T/C [5]: 19.2%
viability, T/C [6]: 23%
viability, T/C [7]: 26.9%
viability, T/C [8]: 17%
viability, T/C [9]: 15.8%
viability, T/C [10]: 17%
viability, T/C [11]: 19.7%
viability, T/C [12]: 22.5%
viability, T/C [13]: 21.1%
viability, T/C [14]: 16.6%
viability, T/C [15]: 13%
viability, T/C [16]: 13.3%
viability, T/C [17]: 22.9%
viability, T/C [18]: 20.3%
viability, T/C [19]: 20.6%
viability, T/C [20]: 15.8%
viability, T/C [21]: 13.1%
viability, T/C [22]: 11.8%
viability, T/C [23]: 12.5%
viability, T/C [24]: 18.2%
viability, T/C [25]: 15%
viability, T/C [26]: 12.8%
viability, T/C [27]: 10.3%
viability, T/C [28]: 9.31%
viability, T/C [29]: 11.1%
viability, T/C [30]: 14.6%

CC(C)n1c(=O)n(C)c2cnc3cc(F)c(-c4ccc(OCCCN5CCCCC5)nc4)cc3c21 + Cn1nnc2c(C(N)=O)ncn2c1=O
IC50 (second compound 1 µM): > 10000 nM
IC50 (second compound 3.16 µM): 7440 nM
IC50 (second compound 10 µM): 4910 nM
IC50 (second compound 31.6 µM): 3720 nM
IC50 (second compound 100 µM): 1880 nM
viability, T/C [1]: 91.7%
viability, T/C [2]: 91.3%
viability, T/C [3]: 91.5%
viability, T/C [4]: 85.4%
viability, T/C [5]: 68.1%
viability, T/C [6]: 56.7%
viability, T/C [7]: 91%
viability, T/C [8]: 84%
viability, T/C [9]: 85.8%
viability, T/C [10]: 84.2%
viability, T/C [11]: 66.4%
viability, T/C [12]: 44.3%
viability, T/C [13]: 75.2%
viability, T/C [14]: 75.5%
viability, T/C [15]: 78.5%
viability, T/C [16]: 72.7%
viability, T/C [17]: 55.8%
viability, T/C [18]: 40.6%
viability, T/C [19]: 68.3%
viability, T/C [20]: 70%
viability, T/C [21]: 68.8%
viability, T/C [22]: 62%
viability, T/C [23]: 52.5%
viability, T/C [24]: 35%
viability, T/C [25]: 55.1%
viability, T/C [26]: 57.4%
viability, T/C [27]: 55.2%
viability, T/C [28]: 54%
viability, T/C [29]: 46.4%
viability, T/C [30]: 37%

Cn1ncnc1[C@H]1c2n[nH]c(=O)c3cc(F)cc(c23)N[C@@H]1c1ccc(F)cc1 + CC[C@@]1(O)C(=O)OCc2c1cc1n(c2=O)Cc2cc3c(CN(C)C)c(O)ccc3nc2-1
IC50 (second compound 0.003 µM): > 3000 nM
IC50 (second compound 0.00949 µM): > 3000 nM
IC50 (second compound 0.03 µM): > 3000 nM
IC50 (second compound 0.0949 µM): 1640 nM
IC50 (second compound 0.3 µM): < 9.49 nM
viability, T/C (second compound 0.003 µM, first compound 0.00949 µM): 93.5%
viability, T/C (second compound 0.003 µM, first compound 0.03 µM): 83.8%
viability, T/C (second compound 0.003 µM, first compound 0.0949 µM): 83.4%
viability, T/C (second compound 0.003 µM, first compound 0.3 µM): 82.4%
viability, T/C (second compound 0.003 µM, first compound 0.949 µM): 86.5%
viability, T/C (second compound 0.003 µM, first compound 3 µM): 64.9%
viability, T/C (second compound 0.00949 µM, first compound 0.00949 µM): 91.5%
viability, T/C (second compound 0.00949 µM, first compound 0.03 µM): 81.9%
viability, T/C (second compound 0.00949 µM, first compound 0.0949 µM): 82.5%
viability, T/C (second compound 0.00949 µM, first compound 0.3 µM): 84.8%
viability, T/C (second compound 0.00949 µM, first compound 0.949 µM): 92.1%
viability, T/C (second compound 0.00949 µM, first compound 3 µM): 62.9%
viability, T/C (second compound 0.03 µM, first compound 0.00949 µM): 70.7%
viability, T/C (second compound 0.03 µM, first compound 0.03 µM): 73.7%
viability, T/C (second compound 0.03 µM, first compound 0.0949 µM): 70.6%
viability, T/C (second compound 0.03 µM, first compound 0.3 µM): 73.5%
viability, T/C (second compound 0.03 µM, first compound 0.949 µM): 62%
viability, T/C (second compound 0.03 µM, first compound 3 µM): 57.7%
viability, T/C (second compound 0.0949 µM, first compound 0.00949 µM): 60.6%
viability, T/C (second compound 0.0949 µM, first compound 0.03 µM): 56%
viability, T/C (second compound 0.0949 µM, first compound 0.0949 µM): 60.9%
viability, T/C (second compound 0.0949 µM, first compound 0.3 µM): 59.5%
viability, T/C (second compound 0.0949 µM, first compound 0.949 µM): 58.2%
viability, T/C (second compound 0.0949 µM, first compound 3 µM): 40.9%
viability, T/C (second compound 0.3 µM, first compound 0.00949 µM): 43.5%
viability, T/C (second compound 0.3 µM, first compound 0.03 µM): 45.4%
viability, T/C (second compound 0.3 µM, first compound 0.0949 µM): 41.9%
viability, T/C (second compound 0.3 µM, first compound 0.3 µM): 41.9%
viability, T/C (second compound 0.3 µM, first compound 0.949 µM): 37.3%
viability, T/C (second compound 0.3 µM, first compound 3 µM): 25.1%
